Source: patent US4410541A, “Composite for improving lipid metabolism” (Nihon Nosan Kogyo K.K., priority 1981, dated 1983)

Test: Animal Experiment 2: whole cholesterol in hypercholesterolemia rats (Zurkowski's method)
Type: in vivo, rats of Wistar descent
Conditions: male Wistar rats on cholesterol feed, five days; composite oral 75 μg monoiodohistidine/day/rat, contrast groups equal iodine amount; control group 335
Protocol: A test groups consisted of ten heads of male rats of Wistar descent, which weighed about 120 g. The test group was fed in a cage at 24±1° C. of temperature and at 50 to 60% of humidity. […] The composite to be tested was made from the yolk of egg of the egg-laying hens to which calcium iodate was fed. The composite was dissolved in distilled water, and then orally dosed to the rats by means of a stomach probe at the rate of 75 μg of monoiodohistidine per day per rat for five days in parallel with feeding of the cholesterol containing feed. The rats were caused to fast for a night after composite dosing was finished, and next morning blood was taken from fundus of the rat's eyes in order to measure the amount of whole cholesterol by Zurkowski's method.
A control group, a contrast group (1) and a contrast group (2) equally consisted of rats which got hypercholesterolemia by the same process as mentioned in the test group. While potassium iodide was dosed to the contrast group (1) so that the iodine amount would be equal to that of the test group, iodo-lecithin was dosed to the contrast group (2) so that the iodine amount would be equal to that of the test group. On the other hand, no iodine agent or compound was dosed to the control group. And, as to the rats of these groups, the amount of whole cholesterol was measured by the same method as mentioned in the test group.

Molecule	Amount of whole Cholesterol [mg/dL]
[I-].[K+] [potassium iodide]	323
iodo-lecithin	325
